Patent EP0908457B1, “3-(1,2-benzisothiazol- and isoxazol-5-Y1)-2,4(1H,3H)-pyrimidinedione or thione and 3-(1,2-benzisothiazol- and isoxazol-5-y1)-4(3H)-pyrimidinone or thione herbicidal agents” (BASF AKTIENGESELLSCHAFT, priority 1997, dated 1999)

How the values were obtained:
[1] = test system: Echinochloa oryzoides (Ard.) Fritsch.; test: Preemergence weed control under flooded paddy conditions, ECHORC (Watergrass (Calif.)); assay type: in vivo; conditions: preemergence, flooded paddy
[2] = test system: Cyperus iria; test: Preemergence weed control under flooded paddy conditions, CYPIR (Rice Flatsedge); assay type: in vivo; conditions: preemergence, flooded paddy
[3] = test system: Cyperus serotinus, Rottb.; test: Preemergence weed control under flooded paddy conditions, CYPSE (Flatsedge); assay type: in vivo; conditions: preemergence
[4] = test system: Monochoria vaginalis, Presl.; test: Preemergence weed control under flooded paddy conditions, MOOVA (Monochoria); assay type: in vivo; conditions: preemergence, flooded paddy
[5] = test system: Sagittaria pygmaea, L.; test: Preemergence weed control under flooded paddy conditions, SAGPY (Arrowhead (Pygmaea)); assay type: in vivo; conditions: preemergence, flooded paddy
[6] = test system: Oryza sativa, (L.) Tebonnet; test: Rice tolerance to post-transplant applications under flooded paddy conditions (Example 187), ORYSAT (Rice, Tebonnet); as to herbicidal effect rating ORYSAT: meaning of each grade not given here
[7] = Rate 0.0320 kg/ha, rated 3-4 weeks after treatment
[8] = Rate 0.0620 kg/ha, rated 3-4 weeks after treatment
[9] = Rate 0.1250 kg/ha, rated 3-4 weeks after treatment
[10] = Rate 0.2500 kg/ha, rated 3-4 weeks after treatment
[11] = Rate 0.5000 kg/ha, rated 3-4 weeks after treatment
[12] = 0.0320 kg/ha, rated three to four weeks after treatment
[13] = 0.0620 kg/ha, rated three to four weeks after treatment
[14] = 0.1250 kg/ha, rated three to four weeks after treatment
[15] = 0.2500 kg/ha, rated three to four weeks after treatment
[16] = Rate 0.0313 kg/ha, rated three to four weeks after treatment
[17] = Rate 0.0625 kg/ha, rated three to four weeks after treatment
[18] = Rate 0.1250 kg/ha, rated three to four weeks after treatment
[19] = Rate 0.2500 kg/ha, rated three to four weeks after treatment
[20] = Rate 0.0320 kg/ha, rated three to four weeks after treatment
[21] = Rate 0.0620 kg/ha, rated three to four weeks after treatment
[22] = Rate 0.5000 kg/ha, rated three to four weeks after treatment

Cc1ccc(OC(C)(C)C(=O)OCC(F)(F)F)c(-c2nsc3ccc(-n4c(=O)cc(C(F)(F)F)n(C)c4=O)cc23)c1 [Example 545, Propionic acid, 2-{{2-{5-[3,6-dihydro-3-methyl-2,6-dioxo-4-(trifluoromethyl)-1(2H)-pyrimidinyl]-1,2-benzisothiazol-3-yl}-p-tolyl}oxy}-2-methyl-, 2,2,2-trifluoroethyl ester]
herbicidal effect rating, ECHORC [1, 7]: 5.6 | herbicidal effect rating, ECHORC [1, 8]: 6.6 | herbicidal effect rating, ECHORC [1, 9]: 7.0 | herbicidal effect rating, ECHORC [1, 10]: 9.0 | herbicidal effect rating, ECHORC [1, 11]: 9.0 | herbicidal effect rating, CYPIR [2, 7]: 4.0 | herbicidal effect rating, CYPIR [2, 8]: 5.0 | herbicidal effect rating, CYPIR [2, 9]: 6.0 | herbicidal effect rating, CYPIR [2, 10]: 7.0 | herbicidal effect rating, CYPIR [2, 11]: 9.0 | herbicidal effect rating, CYPSE [3, 7]: 0.0 | herbicidal effect rating, CYPSE [3, 8]: 0.0 | herbicidal effect rating, CYPSE [3, 9]: 9.0 | herbicidal effect rating, CYPSE [3, 10]: 9.0 | herbicidal effect rating, CYPSE [3, 11]: 6.0 | herbicidal effect rating, MOOVA [4, 7]: 6.0 | herbicidal effect rating, MOOVA [4, 8]: 7.0 | herbicidal effect rating, MOOVA [4, 9]: 9.0 | herbicidal effect rating, MOOVA [4, 10]: 9.0 | herbicidal effect rating, MOOVA [4, 11]: 9.0 | herbicidal effect rating, SAGPY [5, 7]: 0.0 | herbicidal effect rating, SAGPY [5, 8]: 0.0 | herbicidal effect rating, SAGPY [5, 9]: 4.0 | herbicidal effect rating, SAGPY [5, 10]: 7.0 | herbicidal effect rating, SAGPY [5, 11]: 9.0 | herbicidal effect rating ORYSAT [6, 7]: 2.0 | herbicidal effect rating ORYSAT [6, 8]: 2.0 | herbicidal effect rating ORYSAT [6, 9]: 4.0 | herbicidal effect rating ORYSAT [6, 10]: 9.0 | herbicidal effect rating ORYSAT [6, 11]: 9.0

COC(=O)COc1cc(C)ccc1-c1nsc2cc(F)c(-n3c(=O)cc(C(F)(F)F)n(C)c3=O)cc12 [Example 479, Acetic acid, {{6-{5-[3,6-dihydro-3-methyl-2,6-dioxo-4-(trifluoromethyl)-1(2H)-pyrimidinyl]-6-fluoro-1,2-benzisothiazol-3-yl}-m-tolyl}oxy}-, methyl ester]
ECHORC herbicidal rating [1, 12]: 7.0 | ECHORC herbicidal rating [1, 13]: 7.0 | ECHORC herbicidal rating [1, 14]: 9.0 | ECHORC herbicidal rating [1, 15]: 9.0 | CYPIR herbicidal rating [2, 12]: 0.0 | CYPIR herbicidal rating [2, 13]: 0.0 | CYPIR herbicidal rating [2, 14]: 5.0 | CYPIR herbicidal rating [2, 15]: 9.0 | CYPSE herbicidal rating [3, 12]: 0.0 | CYPSE herbicidal rating [3, 13]: 7.0 | CYPSE herbicidal rating [3, 14]: 9.0 | CYPSE herbicidal rating [3, 15]: 9.0 | MOOVA herbicidal rating [4, 12]: 0.0 | MOOVA herbicidal rating [4, 13]: 7.0 | MOOVA herbicidal rating [4, 14]: 9.0 | MOOVA herbicidal rating [4, 15]: 9.0 | SAGPY herbicidal rating [5, 12]: 3.0 | SAGPY herbicidal rating [5, 13]: 5.0 | SAGPY herbicidal rating [5, 14]: 6.0 | SAGPY herbicidal rating [5, 15]: 8.0 | ORYSAT herbicidal rating (rice tolerance) [6, 12]: 5.0 | ORYSAT herbicidal rating (rice tolerance) [6, 13]: 5.0 | ORYSAT herbicidal rating (rice tolerance) [6, 14]: 9.0 | ORYSAT herbicidal rating (rice tolerance) [6, 15]: 9.0

C=CCOCC(CC)(COCC=C)COC(=O)COc1ccc(C)cc1-c1nsc2ccc(-n3c(=O)cc(C(F)(F)F)n(C)c3=O)cc12 [Example 521, Acetic acid, {{2-{5-[3,6-dihydro-3-methyl-2,6-dioxo-4-(trifluoromethyl)-1(2H)-pyrimidinyl]-1,2-benzisothiazol-3-yl}-p-tolyl}oxy}-, 2,2-bis-[(allyloxy)methyl]butyl ester]
herbicidal effect rating, ECHORC [1, 7]: 2.0 | herbicidal effect rating, ECHORC [1, 8]: 2.0 | herbicidal effect rating, ECHORC [1, 9]: 4.0 | herbicidal effect rating, ECHORC [1, 10]: 4.0 | herbicidal effect rating, CYPIR [2, 7]: 0.0 | herbicidal effect rating, CYPIR [2, 8]: 0.0 | herbicidal effect rating, CYPIR [2, 9]: 0.0 | herbicidal effect rating, CYPIR [2, 10]: 2.0 | herbicidal effect rating, CYPSE [3, 7]: 0.0 | herbicidal effect rating, CYPSE [3, 8]: 0.0 | herbicidal effect rating, CYPSE [3, 9]: 0.0 | herbicidal effect rating, CYPSE [3, 10]: 0.0 | herbicidal effect rating, MOOVA [4, 7]: 6.0 | herbicidal effect rating, MOOVA [4, 8]: 9.0 | herbicidal effect rating, MOOVA [4, 9]: 9.0 | herbicidal effect rating, MOOVA [4, 10]: 9.0 | herbicidal effect rating, SAGPY [5, 7]: 0.0 | herbicidal effect rating, SAGPY [5, 8]: 0.0 | herbicidal effect rating, SAGPY [5, 9]: 0.0 | herbicidal effect rating, SAGPY [5, 10]: 0.0 | herbicidal effect rating ORYSAT [6, 7]: 0.0 | herbicidal effect rating ORYSAT [6, 8]: 0.0 | herbicidal effect rating ORYSAT [6, 9]: 0.0 | herbicidal effect rating ORYSAT [6, 10]: 0.0

Cn1c(C(F)(F)F)cc(=O)n(-c2ccc3snc(COCCCCl)c3c2)c1=O [Example 224, 3-{3-[(3-Chloropropoxy)methyl]-1,2-benzisothiazol-5-yl}-1-methyl-6-(trifluoromethyl)-2,4(1H,3H)-pyrimidinedione]
ECHORC herbicidal effect rating [1, 16]: 6.0 | ECHORC herbicidal effect rating [1, 17]: 9.0 | ECHORC herbicidal effect rating [1, 18]: 9.0 | ECHORC herbicidal effect rating [1, 19]: 9.0 | CYPIR herbicidal effect rating [2, 16]: 4.0 | CYPIR herbicidal effect rating [2, 17]: 7.0 | CYPIR herbicidal effect rating [2, 18]: 8.0 | CYPIR herbicidal effect rating [2, 19]: 8.0 | CYPSE herbicidal effect rating [3, 16]: 0.0 | CYPSE herbicidal effect rating [3, 17]: 0.0 | CYPSE herbicidal effect rating [3, 18]: 2.0 | CYPSE herbicidal effect rating [3, 19]: 7.0 | MOOVA herbicidal effect rating [4, 16]: 9.0 | MOOVA herbicidal effect rating [4, 17]: 9.0 | MOOVA herbicidal effect rating [4, 18]: 9.0 | MOOVA herbicidal effect rating [4, 19]: 9.0 | SAGPY herbicidal effect rating [5, 16]: 0.0 | SAGPY herbicidal effect rating [5, 17]: 2.0 | SAGPY herbicidal effect rating [5, 18]: 4.0 | SAGPY herbicidal effect rating [5, 19]: 8.0 | ORYSAT herbicidal effect rating [6, 16]: 6.0 | ORYSAT herbicidal effect rating [6, 17]: 7.0 | ORYSAT herbicidal effect rating [6, 18]: 8.0 | ORYSAT herbicidal effect rating [6, 19]: 9.0

Cc1nsc2cc(F)c(-n3c(=O)cc(C(F)(F)F)n(C)c3=O)cc12 [Example 366, 2,4(1H,3H)-Pyrimidinedione, 3-(6-fluoro-3-methyl-1,2-benzisothiazol-5-yl)-1-methyl-6-(trifluoromethyl)-]
herbicidal effect rating, ECHORC [1, 20]: 8.0 | herbicidal effect rating, ECHORC [1, 21]: 8.5 | herbicidal effect rating, ECHORC [1, 18]: 9.0 | herbicidal effect rating, ECHORC [1, 19]: 9.0 | herbicidal effect rating, ECHORC [1, 22]: 9.0 | herbicidal effect rating, CYPIR [2, 20]: 8.5 | herbicidal effect rating, CYPIR [2, 21]: 9.0 | herbicidal effect rating, CYPIR [2, 18]: 9.0 | herbicidal effect rating, CYPIR [2, 19]: 9.0 | herbicidal effect rating, CYPIR [2, 22]: 9.0 | herbicidal effect rating, CYPSE [3, 20]: 8.0 | herbicidal effect rating, CYPSE [3, 21]: 8.0 | herbicidal effect rating, CYPSE [3, 18]: 9.0 | herbicidal effect rating, CYPSE [3, 19]: 9.0 | herbicidal effect rating, CYPSE [3, 22]: 9.0 | herbicidal effect rating, MOOVA [4, 20]: 9.0 | herbicidal effect rating, MOOVA [4, 21]: 9.0 | herbicidal effect rating, MOOVA [4, 18]: 9.0 | herbicidal effect rating, MOOVA [4, 19]: 9.0 | herbicidal effect rating, MOOVA [4, 22]: 9.0 | herbicidal effect rating, SAGPY [5, 20]: 7.0 | herbicidal effect rating, SAGPY [5, 21]: 8.0 | herbicidal effect rating, SAGPY [5, 18]: 9.0 | herbicidal effect rating, SAGPY [5, 19]: 9.0 | herbicidal effect rating, SAGPY [5, 22]: 9.0 | herbicidal effect rating ORYSAT [6, 20]: 7.5 | herbicidal effect rating ORYSAT [6, 21]: 9.0 | herbicidal effect rating ORYSAT [6, 18]: 9.0 | herbicidal effect rating ORYSAT [6, 19]: 9.0 | herbicidal effect rating ORYSAT [6, 22]: 9.0
